From patent US7429448B2, “Therapeutic use of the SMR1 protein and active derivatives thereof” (Institut Pasteur, priority 1998, dated 2008)
Square brackets hold non-standard residues; d marks the D form. Ends that are not written are not given here. pGlu = O=C1CC[C@@H](C(=O)O)N1

Tests used:
[1] = Chromatographic characterization of radioactive peptide uptake by tissues; type: in vivo, rat; conditions: 180 min after injection
Procedure: The chromatographic characteristics of the labeled compound associated, in vivo, to target organs were assessed by HPLC.
At selected time points (2 and 180 min.) after administration of tritiated pentapeptide, the anesthetized rats were sacrificed (cardiac blood puncture) and tissues quickly removed on ice. The tissues were immediately homogenized at 4° C. in 5-10 volumes of 0.1 M chlorhydric acid using a potter homogenizer (demineralization of bone tissue was realized after 24-48 h at 4° C. in guanidium hydrochloride and EDTA pretreatment, 4 M and 0.25 M final concentration, respectively). Homogenates were centrifuged for 30 min. at 4° C. and 15,000 g. To determine total radioactivity, aliquots of the supernatant solution were added to 50 volumes of Biofluor (NEN, Dupont de Nemours, France) and counted in a liquid scintillation counter.
To determine the radioactivity in the pentapeptide fraction, aliquots of the tissue extracts were submitted to a methanol-extraction procedure (Rougeot et al., 1994) after neutralization with Tris/HCl pH 8.5 containing 16 mM DTPA (DiethyleneTriaminePenta-Acetic acid, Sigma, France). […] Fractions were collected every 60 sec. and analyzed for radioactivity using a liquid scintillation counter.

[2] = Pentapeptide metabolic and pharmacokinetic studies after i.v. bolus of tritiated pentapeptide; type: in vivo, rat
Procedure: The in vivo time course of distribution, metabolism and elimination of the pentapeptide was investigated in anesthetized adult male rats using physiological concentrations of circulating tritiated pentapeptide.
Anesthetized male rats were given a bolus intravenous injection of 170 pmoles or 110 ng tritiated pentapeptide diluted in 100 μl PBS Dulbecco's. Blood was collected in tubes containing a mixture of peptidase inhibitors described above, via a silastic catheter implanted into the external jugular vein. Blood was withdrawn just before and 2, 4, 6, 8, 10, 20, 30, 45, 60, 90 and 120 min. after peptide administration. Two milliliters of blood per rat were taken in all and the entire urinary bladder content was collected at a last selected point.
The biological samples were submitted to centrifugation and Parapak Q extraction conditions, as described above. Chromatrography using HPLC procedure described above and in the reference (Rougeot et al., 1994) was then applied to each extracted sample. The ODS AQ RP-C18 was used for identification of amino-terminal metabolites and Pep RPC HR C18 (Pharmacia, France) for identification of carboxyl-terminal metabolites. The radioactivity content of samples before and after chromatographic separations was determined using a beta counter (Kontron, MR300).

[3] = system: pentapeptide binding sites; assay: In vivo displacement of ^3H-pentapeptide uptake by coinjection of 100-fold excess unlabeled peptide; set-up: species or system rat; conditions: for specific labeling percentage: 60 min, 100-fold excess unlabeled peptide
Description: Biological receptor sites have two essential characteristics that allow specific binding to be identified, in vivo; they have a high affinity for the ligand and the binding is saturable (Whitcomb et al., 1993). Therefore, displacement experiments, using parallel systemic administration of an excess of the corresponding unlabeled peptide has been performed. Furthermore, the specific cellular localization of labeled pentapeptide to target tissues has been identified by section microscopic autoradiography.
(§1) The cellular-site localization for physiological concentrations of labeled pentapeptide was investigated by paraffin- or resin-section microscopic autoradiography procedure. Sixty minutes after ^3H-pentapeptide (555 KBq, 160 ng or 250 pmoles) i.v. administration, the anesthetized male rats were perfused via the jugular veins with ice-cold Krebs Ringer Bicarbonate Glucosed buffer and then 0.5% paraformaldehyde/0.5% glutaraldehyde fixative PBS buffer (plus glucose 1.6%, CaCl2 0.002% and DMSO 1%) (50 ml/5 min. for each). Tissues were rapidly removed and harvested for paraffin sectioning (Paraplast plus-Sherwood medical, OSI, France) or for resin sectioning (histo-resin Leica, France). All sections were cut at 5 microns (Reichert Jung for paraffin and RM2155 Leica for resin sections) and mounted on Superfrost/Plus glass slides (non gelatin-coated). Paraffin was removed with xylene, and sections were carried through a descending, then an ascending ethanol series (from 100 to 50%, V/V and reverse). Dried sections were then processed for light microscope autoradiography by attaching nuclear emulsion-coated (Kodak, NTB2, diluted 1:1 with distilled water) coverslips to them. After air drying for 2 hrs at room temperature the autoradiographs were exposed for 6 to 10 weeks in light-tight boxes at 4° C. Radiosensitive coverslips were developed in Kodak D19 (3 min.) developer and fixed in Kodak fixer (3 min.) Sections were counterstained with Harris' hematoxylin (Prolabo, France) and Toluidine blue (Sigma, France), dehydrated and mounted in Eukitt medium. The tissue and overlying silver grains were viewed and photographed with a Leica photomicroscope equipped with bright-field optics (DMRD Leitz, Leica).
The tritium activity was determined as counts/mm^2.
In the case of radioactive quantification of organ sections or acid extracts, using a liquid scintillation counter (MR300Kontron), the tritium activity was determined as cpm/mg protein. Protein concentration was determined by the Bradford method (Bradford et al., 1976).

[4] = system: ^3H-pentapeptide binding sites; assay: Cellular localization of ^3H-pentapeptide binding sites by light microscopic autoradiography; type: in vivo, rat
Procedure: as §1

[5] = rat, in vivo
Procedure: Labeled compound i.e. 6.66 MBq, 3 nmoles or 2 mg for whole body autoradiography (WBA) and 370-555 KBq, 170-250 pmoles or 110-160 ng for the pharmacokinetic and cellular-site distribution studies was diluted in 100-200 ml of phosphate-buffered saline (PBS Dulbecco's, Bio Media, France) and administered intravenously into the jugular vein of anesthetized rats (halothan for WBA or pentobarbital for all the other experiments).
The target tissues for the final secretory maturation product of SMR1, the pentapeptide, was examined, in vivo, by the whole body autoradiography procedure according to the method of Ullberg (Ullberg et al., 1981).
The five week-old rats were sacrificed under halothane, at 90 sec., 3, 60 and 240 min. after i.v. injection of 3 nmoles (6.66 MBq or 2 μg) of tritiated pentapeptide. At the selected time, the restrained animal was immediately immersed in a −80° C. mixture of dry ice and isopentane, to prevent artifactual tracer redistribution. After 48 hours in self-sealing plastic stored at −30° C., the animal was then blocked in mounting medium. Whole body sagittal sections (20 mm) of the frozen rat were made at −30° C. with a cryostat (whole body slicing microtome Leitz 400 with a chest mobile freezer Leitz O M, Leica, France). Sections adhering to Scotch tape were left in a freezer, temperature −30° C., for 4 days to insure complete drying. The tapes were placed in a film cassette with ^3H Hyperfilm (Amersham, France) at −20° C. After two weeks the films were developed in Kodak D19 developer and fixed in Kodak fixer.
Data from whole body sections or individual organ sections placed in the gas-chamber detector were collected for 8 hr. or 50 hr., respectively. The number of counts per pixel was recorded in the β imager 2200 (Biospace, France) with a surface detector of 20×20 cm^2, followed by computer-assisted image analysis with the β Vision program using a HP Vectra computer. The tritium activity was determined as counts/mm^2. The linearity of this method of detection allowed measurement of the non specific binding of ^3H-pentapeptide, measured in various structures or compartments within the section with apparent non binding sites for the peptide (background tissues, e.g. muscle and cardiac blood except brain and spinal cord) or in the same labeled structure, in displacement experiments.

[6] = rat, in vivo; remark: listed apart in the source
Procedure: FIG. 4. Quantitative profile of radioactivity in various tissues following administration of 100 pmoles ^3H-hexapeptide, 60 min post-dose or plus 100 nmoles unlabelled peptide to non specific binding.
Quantification was assessed using a spectrometer and calculated as cpm/mg protein from whole tissue extracts.
FIG. 5. Quantitative profile of radioactivity in various tissues following administration of 5 pmoles ^125I-undecapeptide (VRGPRRQHNPR, SEQ ID NO: 7), 10 min post-dose or plus 100 nmoles unlabeled peptide to non specific binding.
Quantification was assessed using a gama-spectrometer and calculated as cpm/g tissue.

[7] = target: anti-pentapeptide serum (rabbit antiserum raised against QHNPR conjugated to egg albumin); assay: competitive liquid phase RIA, displacement of 125I-labelled pentapeptide from the antiserum
[8] = single i.v. injection of 110 ng

QHNPR [pentapeptide, (Gln1)-His-Asn-Pro-Arg]
radioactive extract representing metabolites ([1]; DTPA): 8±6% | radioactive peptide fraction extracted by methanol ([1]; DTPA 16 mM added): 53±9% | amount eliminated through glomerular filtration ([2]; over a 60 min period, anesthetized rats, 170 pmoles dose): 6 pmol | pentapeptide-binding substance complex as share of the circulating peptide fraction ([2]; plasma): approximately 45% | urine radioactivity that is pentapeptide metabolites ([2]; rat, in vivo): Approximately 80% | time from which plasma concentration is back close to a basal level [2, 8]: ≥ 30 min | time to maximal plasma level [2, 8]: ≤ 2 min | infused pentapeptide metabolized in the bloodstream ([2]; within 4 min): 35% | specific labeling percentage ([3]; glandular mucosa of the stomach): 38-61% | specific labeling percentage ([3]; long bone): 29-38% | specific labeling percentage ([3]; pancreatic lobules): 37-55% | displacement of uptake by excess cold ligand ([3]; renal outer medullary): almost complete displacement | specific labeling percentage ([3]; submandibular lobules): 51-91% | cellular localization of silver grains ([4]; bone tissue): the trabeculae bone spaces | cellular localization of silver grains ([4]; dental tissue, upper incisor root): over the entire dentin layer | cellular localization of silver grains ([4]; glandular gastric mucosa): over the chief or peptic cells | cellular label ([4]; glomeruli, epithelia of distal and collecting tubules): No specific cellular label | cellular localization of silver grains ([4]; kidney, 60 min, physiological concentration): over the epithelial cells of the S3 segment of the straight portion of the proximal tubules | cellular label ([4]; pancreatic ducts and islets of Langerhans): No label was observed | cellular localization of silver grains ([4]; pancreatic tissue): over the cells of acini | cellular label ([4]; submandibular tissue): no selective cell association of label was identifiable | radioactivity in the intestinal content [5]: No radioactivity was found | time by which binding to tissue sites has occurred [5]: ≤ 90 s | time over which binding is stable [5]: 240 min | tissue to blood ratio [5]: ~2

VRGPRRQHNPR [undecapeptide]
preferred target organs [6]: kidney and pancreas | target organs compared with the pentapeptide [6]: almost the same as the target organs of the pentapeptide

RQHNPR [hexapeptide]
preferred target organs [6]: kidney and pancreas | retention by the glandular mucosa of stomach [6]: very efficiently retained | target organs compared with the pentapeptide [6]: almost the same as the target organs of the pentapeptide

[pGlu]HNPR [(Glp1)-His-Asn-Pro-Arg]
amount of standard for 50% displacement [7]: < 570 fmol | detection limit (80% binding) [7]: 106 fmol

QHNPR [(Gln1)-His-Asn-Pro-Arg, SMR1-derived pentapeptide QHNPR (unlabelled)]
amount of standard for 50% displacement [7]: < 570 fmol | detection limit (80% binding) [7]: 106 fmol

QHNP [tetrapeptide sequence (QHNP)]
cross-reactivity [7]: < 0.01%
